Results published in patent publication US20130090329A1, “Methods and Compositions for the Treatment of Psychotic Disorders Through the Identification of the Olanzapine Poor Response Predictor Genetic Signature” (SUREGENE, LLC, priority 2011, published 2013).
Marks after values point to notes of the source that are not given here.

Key:
psychopathology (PANSS) [1] = conditions: meta-analysis, population not segmented by OPRP; negative = greater reduction in PANSS; cited from earlier work
psychopathology = conditions: meta-analysis, Davis et al. (2003); cited from earlier work
[2] = tested on: patients suffering from schizophrenia and related disorders; assay: CATIE study: percent change in total PANSS from baseline to LOCF, segmented by OPRP genetic signature status; assay type: in vivo, human; conditions: for Effect size (mean difference / standard deviation): olanzapine OPRP positive versus labelled drug OPRP positive
Source text: Genotype and phenotype data for the CATIE trial were recently made available to qualified researchers through the NIMH Center for Collaborative Genetic Studies on Mental Disorders. The sample consisted of a total of 738 patients. For the present study, the inventors assigned OPRP status to 628 subjects, including 411 subjects of self-reported European ancestry and 217 subjects of self-reported African ancestry. Further details on the patient population are described in the study by Sullivan and coworkers (Sullivan et al., 2008). The CATIE SNP genotype data evaluated included a total of 492,900 SNPs located throughout the genome.
The design of the CATIE study has been described in detail by others (Lieberman et al., 2005; Stroup et al., 2003). […] Subjects that failed Phase I treatment with the typical antipsychotic perphenazine were treated differently than those subjects that failed phase I treatment with an atypical antipsychotic. Instead of entering into Phase II of the trial, subjects who switched from perphenazine entered Phase IB. […] Subjects who failed Phase IB then entered Phase II.
(§1) A total of 738 subjects consented to provide DNA for genetic study. […] Only retrospective genetic analyses, judged to be exempt from human studies requirements by an IRB, were conducted in the current study. For the genetic analyses presented herein, the inventors combined and evaluated drug response data for both Phase I and Phase IB of the CATIE study. All tested patients were studied using well established clinical endpoints comparing baseline, intermediate, and last observation carried forward (LOCF) for the PANSS scores using CATIE data. LOCF analysis is a commonly used clinical endpoint for clinical trials for neuropsychiatric drugs, with particular changes in PANSS scores being used to indicate clinically significant response (Leucht et al., 2009).
Using the clinical data from the CAIE trial, the inventors derived several different metrics used for quantifying response in clinical trials of antipsychotic medications. The most commonly used psychometric instrument is the Positive and Negative Syndrome Scale (PANSS), a 30-item semi-quantitative instrument scored by clinical professionals (Kay et al., 1987). The greater the decrease in PANSS score, the better the clinical response. The most direct measure of clinical response is absolute change in PANSS score. In addition to absolute change, the improvement is often reported as a percentage change from baseline PANSS score.
To examine the relationship of genotypes to drug response the inventors used the publically available PLINK software (Purcell et al., 2007; available on the world wide web at pngu.mgh.harvard.edu/purcell/plink/) and Helix tree (Version 6.4.1; Golden Helix, Bozeman, Mont.). The inventors used Last observation Carry Forward (LOCF) delta PANSS values as a measure of response to antipsychotic treatment. […] The inventors refined the test further by conducting association analysis on using only those subjects that comprised the TT genotype of rs11960832.
As mentioned previously, the mean change in absolute or percent PANSS provides an important measure of efficacy in patients undergoing antipsychotic treatments. Indeed, many pivotal trials in the psychosis field used absolute and/or percentage change in PANSS Score as the primary endpoint (Leucht et al., 2009).

[3] = tested on: patients suffering from schizophrenia and related disorders; assay: CATIE study: worsening of symptoms (LOCF delta PANSS ≧0%) by OPRP status; assay type: in vivo, human; conditions: for Worsening: delta PANSS ≧0%
Procedure: as §1
The inventors also examined the impact of the OPRP status on whether patients' symptoms actually got worse when treated with olanzapine. This is an important safety consideration for antipsychotic drugs response, and failure of a drug to display the desired clinical response on a specific subset of patients could impact the drug label, being contraindicated for a particular subset of patients (see Example 5: “Risk Management Involving the OPRP Genetic Test). […]

psychopathology (PANSS) [4] = conditions: weighted mean difference in PANSS score (absolute); negative = olanzapine superior; cited from earlier work
[5] = tested on: patients suffering from schizophrenia and related disorders; assay: CATIE study: categorical responders (change in total PANSS ≦−10%, LOCF) by OPRP status; assay type: in vivo, human; conditions: for Responders: change in total PANSS ≦−10%
Procedure: A total of 738 subjects consented to provide DNA for genetic study. Details regarding SNP genotyping and quality control have been recently published (Sullivan et al., 2008). Only retrospective genetic analyses, judged to be exempt from human studies requirements by an IRB, were conducted in the current study. For the genetic analyses presented herein, the inventors combined and evaluated drug response data for both Phase I and Phase IB of the CATIE study. All tested patients were studied using well established clinical endpoints comparing baseline, intermediate, and last observation carried forward (LOCF) for the PANSS scores using CATIE data. LOCF analysis is a commonly used clinical endpoint for clinical trials for neuropsychiatric drugs, with particular changes in PANSS scores being used to indicate clinically significant response (Leucht et al., 2009). […] As described above CATIE patients were studied using well established clinical endpoints comparing baseline, intermediate, and last observation carried forward (LOCF) for the PANSS scores.

[6] = Caucasian patients, OPRP Negative, LOCF
[7] = Caucasian patients, OPRP Positive, LOCF

OCCOCCN1CCN(C2=Nc3ccccc3Sc3ccccc32)CC1 [Quetiapine]
Effect Size vs. Placebo (psychopathology (PANSS) [1]): −0.42 | Effect Size vs. FGA (first generation antipsychotics) (psychopathology): 0.01 | Response of OPRP positive group compared with OPRP negative group (percent change in PANSS) ([2]; Caucasian subjects, CATIE): responded worse | DELTA PANSS % (mean change in PANSS score from baseline to LOCF) ([2]; Caucasian subjects, OPRP Negative): −0.6% | DELTA PANSS % (mean change in PANSS score from baseline to LOCF) ([2]; Caucasian subjects, OPRP Positive): 12% | DELTA PANSS % (mean change in PANSS score from baseline to LOCF) ([2]; OPRP Negative subjects, CATIE Phase I and IB, more negative = greater improvement): −3.2^++++ % | DELTA PANSS % (mean change in PANSS score from baseline to LOCF) ([2]; OPRP Positive subjects, CATIE Phase I and IB, more negative = greater improvement): −1.2% | Mean difference between olanzapine and labelled atypical antipsychotic, CATIE OPRP− ([2]; OPRP negative subjects, delta PANSS, negative = olanzapine superior): −8.4 | Mean difference in delta PANSS: olanzapine-treated OPRP positive group minus comparator group ([2]; comparator = OPRP positive subjects treated with the labelled drug, positive = poorer response to olanzapine): 5.5 | Mean difference between olanzapine and labelled atypical antipsychotic, CATIE unsegemented ([2]; delta PANSS, negative = olanzapine superior): −6.2 | Effect size (mean difference / standard deviation) ([2]; CATIE): 0.3^b | Effect size (mean difference / standard deviation) ([2]; CATIE, listed as quetiapine): 0.3 | Number of individuals with delta PANSS ≦0% (non-worsening) [3, 6]: 85 | Number of individuals with delta PANSS ≧0% (worsening symptoms) [3, 6]: 62 | Worsening ([3]; Caucasian patients, OPRP Negative): 42%* | Number of individuals with delta PANSS ≦0% (non-worsening) [3, 7]: 2 | Number of individuals with delta PANSS ≧0% (worsening symptoms) [3, 7]: 7 | Worsening ([3]; Caucasian patients, OPRP Positive): 78% | Number of individuals with delta PANSS ≦0% (non-worsening) ([3]; OPRP Negative, LOCF): 95 | Number of individuals with delta PANSS ≧0% (worsening symptoms) ([3]; OPRP Negative, LOCF): 62 | Worsening ([3]; OPRP Negative, LOCF): 42%^+++ | Number of individuals with delta PANSS ≦0% (non-worsening) ([3]; OPRP Positive, LOCF): 9 | Number of individuals with delta PANSS ≧0% (worsening symptoms) ([3]; OPRP Positive, LOCF): 9 | Worsening ([3]; OPRP Positive, LOCF): 50% | Mean difference between olanzapine and labelled atypical antipsychotic, Meta-analysis (psychopathology (PANSS) [4]): −3.7 | Number of individuals with change in total PANSS ≦−10% (responders) ([5]; OPRP Negative): 48 | Number of individuals with change in total PANSS ≧−10% (non-responders) ([5]; OPRP Negative): 99 | Responders ([5]; OPRP Negative): 33%^+++ | Number of individuals with change in total PANSS ≦−10% (responders) ([5]; OPRP Positive): 4 | Number of individuals with change in total PANSS ≧−10% (non-responders) ([5]; OPRP Positive): 14 | Responders ([5]; OPRP Positive): 22%
